Source: patent publication US11311543B2, “Compositions and methods for inhibiting PTPN22” (YALE UNIVERSITY, priority 2016, dated 2022)

Legend:
PTPN22 [1] = target: T1, PTPN22 (Homo sapiens, UniProt Q9Y2R2); details: Vang et al., 2012; cited from earlier work
T1 construct: host or cells: T cells (not further specified)
T1 sequence (Q9Y2R2 1-807): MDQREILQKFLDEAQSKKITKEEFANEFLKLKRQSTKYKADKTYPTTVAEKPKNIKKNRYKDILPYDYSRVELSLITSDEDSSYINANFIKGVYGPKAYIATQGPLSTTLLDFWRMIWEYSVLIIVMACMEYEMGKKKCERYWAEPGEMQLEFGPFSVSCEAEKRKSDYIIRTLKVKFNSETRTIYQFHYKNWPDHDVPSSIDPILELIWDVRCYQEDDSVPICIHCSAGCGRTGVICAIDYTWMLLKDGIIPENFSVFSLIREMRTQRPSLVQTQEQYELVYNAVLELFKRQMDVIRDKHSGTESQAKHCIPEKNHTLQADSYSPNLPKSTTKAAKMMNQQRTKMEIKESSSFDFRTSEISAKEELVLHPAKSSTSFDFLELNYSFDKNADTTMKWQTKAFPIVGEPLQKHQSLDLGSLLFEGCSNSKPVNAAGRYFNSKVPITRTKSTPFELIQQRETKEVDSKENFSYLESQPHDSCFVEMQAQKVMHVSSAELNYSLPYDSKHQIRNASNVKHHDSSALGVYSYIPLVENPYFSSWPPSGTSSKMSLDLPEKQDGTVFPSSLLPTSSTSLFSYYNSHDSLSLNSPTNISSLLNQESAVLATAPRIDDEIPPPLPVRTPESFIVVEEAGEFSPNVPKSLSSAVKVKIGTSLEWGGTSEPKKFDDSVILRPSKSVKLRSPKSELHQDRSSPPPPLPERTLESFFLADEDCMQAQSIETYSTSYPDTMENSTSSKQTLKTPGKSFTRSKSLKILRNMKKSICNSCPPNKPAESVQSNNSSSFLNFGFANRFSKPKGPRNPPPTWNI

ERK = test: Phosphorylation kinetics of ERK in RAMOS cells after BCR triggering (immunoblot); type: cell-based, human; details: LTV-1 5 μg/mL
Experimental: FIG. 40A depicts the phosphorylation of SHIP1, Lyn and ERK1/2 in total cell lysates of Ramos B cells treated or not with the PTPN22 inhibitor LTV-1 (5 μg/mL) for the indicated times. The cells were subjected to immunoblot analysis of P-LYN P-SHIP1, P-ERK1/2, and β-ACTIN. FIG. 40B depicts flow cytometry analysis of calcium flux of Ramos B cells treated or not with the PTPN22 inhibitor LTV-1 (5 μg/mL) for the indicated times followed by stimulation with anti-IgM F(ab′)2 at the indicated concentrations. FIG. 40C depicts flow cytometry analysis of calcium flux of splenocyte cells treated or not with LTV-1 (0.75 mg) twice daily for 7 days and stimulated with anti-IgM F(ab′)2 (25 μg/mL). FIG. 40D depicts flow cytometry analysis of calcium flux of splenocyte expressing PTPN22 shRNA and stimulated with anti-IgM F(ab′)2 (25 μg/mL).
However, downstream ERK phosphorylation was not affected by PTPN22 inhibition (FIG. 40A). Since PTPN22 inhibition enhanced TCR signaling in Jurkat cell line, it was investigated if PTPN22 blockade may also increase BCR signaling and calcium flux induced by BCR triggering was measured in RAMOS cells in the presence or not of LTV-1. Calcium flux was increased by PTPN22 inhibition, especially at lower concentration of BCR triggering agent (FIG. 40B). […]

PTPN22 [2] = test: PTPN22 protein expression in GFP+ shRNA+ developing B cells from spleen of NSG mice; type: in vivo, human; details: GFP+ vs GFP- hCD19+ cells from spleen of NSG mice
Source text: FIG. 9A depicts a schematic of the experimental design. CD34+ HSCs carrying PTPN22 T allele(s) were transduced with lentiviruses allowing the expression of PTPN22 shRNA before injection in the liver of 3 day-old NSG mice. FIG. 9B depicts representative flow cytometry analysis of CD19+ cells isolated from the spleen of NSG mouse engrafted with PTPN22 C/T HSCs transduced with a GFP-tagged lentivirus expressing PTPN22 specific shRNA. CD19+ B cells were stained with anti-hCD19, anti-IgM and anti-hCD10 antibodies. The frequencies of GFP− and GFP+ shRNA+ new emigrant B cells are shown. […] The frequencies of polyreactive new emigrant B cells from sorted GFP+ fractions expressing PTPN22 shRNA were determined and compared to those of GFP− new emigrant B cells. […] The frequencies of HEp-2 reactive new emigrant B cells from sorted GFP+ fractions expressing PTPN22 shRNA were determined and compared to those of GFP− new emigrant B cells. […]
Total cell lysates were separated by SDS page, transferred to PVDF membranes, probed with mouse anti-PTPN22 (Invitrogen) and detected by chemiluminescence (Amersham ECL Prime Western Blotting detection Reagent) using a GBox documentation system (Syngene). For quantification, blots were stripped with stripping buffer (Pierce) and reprobed with a mouse anti-β-Actin antibody (Sigma-Aldrich).

Row | Molecule | PTPN22 enzymatic activity in T cells in vitro (PTPN22 [1]) | downstream ERK phosphorylation (ERK) | decrease of PTPN22 expression in developing B cells (PTPN22 [2])
1 | Cc1ccccc1N1C(=O)/C(=C/c2ccc(OCc3cccc(C(=O)O)c3)cc2)C(=O)NC1=S [LTV-1] | can be inhibited | not affected | 
2 | shRNA #1: shRNA targeting human PTPN22, 5′-CTAGTGCTCTTGGTGTATATT-3′, delivered by GFP-tagged lentivirus |  |  | more than 90%
